Assay results taken from patent publication US20100081613A1, “METHODS AND COMPOSITIONS FOR ENHANCING MEMORY” (THE TRUSTEES OF COLUMBIA UNIVERSITY IN THE CITY OF NEW YORK, priority 2006, published 2010).

Experiments:
hippocampal slices [1] = system: hippocampal slices
[2] = biological target: rodent Aβ42 (Mus musculus; Rattus norvegicus); assay: cell-based or functional assay
hippocampal slices [3] = assay: Paired pulse facilitation (PPF) at the CA3-CA1 connection; type: cell-based, mouse

contextual fear conditioning, freezing 24 hrs after training, m3.2 mAb 1 µg in 1 µl into dorsal hippocampi (% of freezing) [2] | Compound | PTP (hippocampal slices [1]) | PPF (hippocampal slices [3]; 20 ms interval, MCL 3 μM for 20 min plus Aβ42) | PPF (hippocampal slices [3]; 30 ms interval, MCL 3 μM for 20 min plus Aβ42) | PPF (hippocampal slices [3]; 40 ms interval, MCL 3 μM for 20 min plus Aβ42) | PPF (hippocampal slices [3]; 50 ms interval, MCL 3 μM for 20 min plus Aβ42) | PPF (hippocampal slices [3]; MCL 3 μM for 20 min alone)
 | α-bungarotoxin [α-BgTx] | does not affect PTP |  |  |  |  | 
16.8 | anti-rodent Aβ monoclonal antibody m3.2 |  |  |  |  |  | 
 | CNC1(C)C2CCC(C2)C1(C)C (centres unmarked) [MCL, mecamylamine] | does not affect PTP | 138.18±22.01 % of facilitation | 158.58±16.79 % of facilitation | 176.71±17.51 % of facilitation | 197.49±22.30 % of facilitation | 214.53±20.85%
